Source: patent US9849435B2, “Maleic anhydride polymer-stabilized microcapsules” (Firmenich SA, priority 2013, dated 2017)

Experiments:
[1] = Oil properties: volatility; assay type: physicochemical; details: oil ingredient
[2] = Oil properties: Log P; assay type: physicochemical; details: oil ingredient

SMILES	Volatility [1]	Log P [2]	logP [2]
C/C=C/C(=O)C1C(C)C=CCC1(C)C (centres unmarked) [Delta-Damascone]	371 µg/L	4.16	–
C=CC(C)CCCC(C)(C)O (centres unmarked) [Dihydromycenol]	1391 µg/L	3.47	–
C=C(C)[C@H]1CC=C(C)CC1 [Limonene]	14183 µg/L	4.38	–
OCCc1ccccc1 [Phenylethyl Alcohol]	–	–	1.52
CC(=O)/C=C/C1=C(C)CCCC1(C)C [β-Ionone]	–	3.012	–
